Results published in publication PMC3653948, “PDZ Domain-Mediated Interactions of G Protein-Coupled Receptors with Postsynaptic Density Protein 95: Quantitative Characterization of Interactions” (PLoS ONE, 2013).
“Also recorded” adds a separate entry of the source. Read-outs that look alike come from different tables or passages of the source. Peptide text beside a SMILES is read from it.

How the values were obtained:
PSD-95 = assay: FP competition assay, PSD-95 PDZ domains overall (strongest binding domain / non-binders); conditions: FP competition with the isolated PDZ domains, peptide typically 1–512 µM
Method: (§1) We used a competition set-up, where a constant concentration of isolated PSD-95 PDZ domain and a labeled reference ligand was titrated with unlabeled peptides from the GPCR C-tail library, typically within a 1–512 µM concentration range, and the resulting curves were fitted to obtain the IC50, which was used to calculate the K i (Figure 1). Three Cy5-labeled peptides with well-documented interactions with PSD-95 were used as reference ligands for the competition assay: Cy5-KIF1Bα was used for PDZ1 [20], Cy5-GluN2B (formerly known as NR2B) was used for PDZ2 and PDZ1-2 [21], and Cy5-CRIPT was used for PDZ3 [22] (Table S1). Competition with unlabeled versions of the reference ligands was used to validate the FP assay by comparison with the literature (Table S2).
(§2) FP measurements were performed in black, flat bottom 384-well NBS microplates (Corning) on a Synergy H4 microplatereader (BioTek Instruments) equipped with a 620/40 nm excitation filter, a 680/30 nm emission filter, and a 660 nm dichroic mirror. Polarization values were corrected with blank samples and samples with fluorescent probe alone. At least 10 data points were measured for each curve, and each data point was measured in triplicate. 25 nM Cy5-labeled probe was used for each assay: Cy5-KIF1Bα for PDZ1, Cy5-GluN2B for PDZ2 and PDZ1-2, and Cy5-CRIPT for PDZ3. All FP measurements were performed in a buffer containing 10 mM HEPES pH 7.4, 150 mM NaCl, and 1% BSA and incubated at least 15 min at room temperature before reading. The signal was stable for more than an hour, showing that the reaction was at equilibrium.
(§3) For the competition binding curves, probe was mixed with a constant concentration of PDZ protein corresponding to the K d and a twofold dilution series of unlabeled peptide in a total volume of 30 µl. The baseline was determined using a sample containing only probe. The IC50 was determined by fitting to a 1∶1 binding model: Y = Ymax − Ymax × X/(X+IC50). The K i was calculated from the IC50 and from the K d for the interaction between the PDZ protein and the probe as described previously.

PSD-95 PDZ1 = target: T1, PSD-95 PDZ1 (Homo sapiens, UniProt P78352); assay: FP competition assay, PSD-95 PDZ1 (probe Cy5-KIF1Bα); format: binding
T1 construct: PSD-95 PDZ1 (aa 61–151); made in house; host or cells: E. coli One Shot BL21 Star (DE3)
Method: (§4) FP measurements were performed in black, flat bottom 384-well NBS microplates (Corning) on a Synergy H4 microplatereader (BioTek Instruments) equipped with a 620/40 nm excitation filter, a 680/30 nm emission filter, and a 660 nm dichroic mirror. Polarization values were corrected with blank samples and samples with fluorescent probe alone. At least 10 data points were measured for each curve, and each data point was measured in triplicate. […] All FP measurements were performed in a buffer containing 10 mM HEPES pH 7.4, 150 mM NaCl, and 1% BSA and incubated at least 15 min at room temperature before reading. The signal was stable for more than an hour, showing that the reaction was at equilibrium.
(§5) For the competition binding curves, probe was mixed with a constant concentration of PDZ protein corresponding to the K d and a twofold dilution series of unlabeled peptide in a total volume of 30 µl. The baseline was determined using a sample containing only probe. The IC50 was determined by fitting to a 1∶1 binding model: Y = Ymax − Ymax × X/(X+IC50). The K i was calculated from the IC50 and from the K d for the interaction between the PDZ protein and the probe as described previously [38].

PSD-95 PDZ2 = target: T2, PSD-95 PDZ2 (Homo sapiens, UniProt P78352); assay: FP competition assay, PSD-95 PDZ2 (probe Cy5-GluN2B); format: binding; conditions: read-out: K i PDZ2
T2 construct: PDZ2 (aa 155–249); made in house; host or cells: E. coli One Shot BL21 Star (DE3)
Method: as §4, §5

PSD-95 PDZ3 = target: T3, PSD-95 PDZ3 (Homo sapiens, UniProt P78352); assay: FP competition assay, PSD-95 PDZ3 (probe Cy5-CRIPT); format: binding
T3 construct: made in house; host or cells: E. coli One Shot BL21 Star (DE3)
Method: as §1, §2
Saturation binding curves were used to determine the functionality of the PDZ domains by comparison with literature values and to calculate K i values from competition curves. Saturation binding curves were performed by mixing probe with a twofold dilution series of PDZ protein in a total volume of 30 µl. The K d was determined by fitting to a 1∶1 binding model: Y = Ymax × X/(X+K d).
as §3

[1] = 25 nM Cy5-KIF1Bα, 10 mM HEPES pH 7.4, 150 mM NaCl, 1% BSA, room temperature, at least 15 min, Ki ± fitting error, read-out: K i PDZ1

Row | Compound | Interaction with PSD-95 using fluorescence polarization (PSD-95) | also measured
1 | QRERRQKSDW [μOR-1B2, synthetic peptide, C-terminal 10 aa of human µOR-1B2 with N-terminal YDDR/DDR linker] | not to interact | 
2 | EVVDSTTSSL [mGlu2, synthetic peptide, C-terminal 10 aa of human mGlu2 with N-terminal YDDR/DDR linker] | not to interact | 
3 | RDYTQSSSSL [mGlu5(b), synthetic peptide, C-terminal 10 aa of human mGlu5(b) with N-terminal YDDR/DDR linker] | not to interact | 
4 | CC(C)[C@H](NC(=O)[C@H](CS)NC(=O)[C@H](CO)NC(=O)[C@@H](NC(=O)[C@H](CCCCN)NC(=O)[C@H](CCC(=O)O)NC(=O)[C@H](CC(N)=O)NC(=O)[C@@H](NC(=O)CNC(=O)[C@H](CC(=O)O)NC(=O)[C@H](CCCNC(=N)N)NC(=O)[C@H](CC(=O)O)NC(=O)[C@H](CC(=O)O)NC(=O)[C@@H](N)Cc1ccc(O)cc1)C(C)C)C(C)C)C(=O)O [5-HTR2A] (H-YDDRDGVNEKVSCV-OH) |  | Ki (PSD-95 PDZ1; [1]): 160 ± 4 µM; Ki (PSD-95 PDZ2): 46 ± 0.2 µM; Ki (PSD-95 PDZ3; read-out: K i PDZ3): > 1000 µM
5 | EFKQNGDTSL [P2Y1, synthetic peptide, C-terminal 10 aa of human P2Y1 with N-terminal YDDR/DDR linker] | not to interact | 
6 | ESESSSFHSS [CXCR4, synthetic peptide, C-terminal 10 aa of human CXCR4 with N-terminal YDDR/DDR linker] | not to interact | 
7 | RDIDGMNKPV [κOR, synthetic peptide, C-terminal 10 aa of human κ opioid receptor (no PDZ motif) with N-terminal YDDR/DDR linker] | not to interact; also recorded: no interaction | 
8 | CC(C)[C@H](NC(=O)[C@H](CCCCN)NC(=O)[C@H](CO)NC(=O)[C@H](CCC(=O)O)NC(=O)[C@H](CO)NC(=O)[C@H](C)NC(=O)[C@H](Cc1ccccc1)NC(=O)CNC(=O)[C@@H]1CCCN1C(=O)[C@H](CCCNC(=N)N)NC(=O)[C@H](CCCNC(=N)N)NC(=O)[C@H](CC(=O)O)NC(=O)[C@H](CC(=O)O)NC(=O)[C@@H](N)Cc1ccc(O)cc1)C(=O)O [β1AR] (H-YDDRRPGFASESKV-OH) |  | Ki (PSD-95 PDZ1; [1]): 430 ± 47 µM; Ki (PSD-95 PDZ2): 120 ± 20 µM; Ki (PSD-95 PDZ3; read-out: K i PDZ3): 360 ± 82 µM
9 | CC[C@H](C)[C@H](NC(=O)[C@H](CO)NC(=O)[C@@H](NC(=O)[C@H](CCC(N)=O)NC(=O)[C@H](CC(C)C)NC(=O)[C@H](CC(=O)O)NC(=O)CNC(=O)[C@H](CC(N)=O)NC(=O)[C@H](CC(C)C)NC(=O)[C@H](CC(C)C)NC(=O)[C@H](CCCNC(=N)N)NC(=O)[C@H](CC(=O)O)NC(=O)[C@H](CC(=O)O)NC(=O)[C@@H](N)Cc1ccc(O)cc1)[C@@H](C)O)C(=O)O [SSTR2A] (H-YDDRLLNGDLQTSI-OH) |  | Ki (PSD-95 PDZ1; [1]): 620 ± 106 µM; Ki (PSD-95 PDZ2): 230 ± 2 µM; Ki (PSD-95 PDZ3; read-out: K i PDZ3): > 1000 µM
10 | CC[C@H](C)[C@H](NC(=O)[C@H](CO)NC(=O)[C@H](CO)NC(=O)[C@H](CC(C)C)NC(=O)[C@H](CCCCN)NC(=O)[C@H](CCC(=O)O)NC(=O)[C@@H](N)Cc1ccc(O)cc1)C(=O)N[C@@H](CCC(=O)O)C(=O)N[C@@H](CO)C(=O)N[C@@H](CC(=O)O)C(=O)N[C@H](C(=O)O)C(C)C [GluN2B, reference compound] (H-YEKLSSIESDV-OH) |  | Ki (PSD-95 PDZ1; unlabeled reference ligand vs Cy5-KIF1Bα, mean Ki ± SEM from two or more independent experiments, read-out: Ki PDZ1 Result (Table S2)): 29 ± 2.5 µM; Ki (PSD-95 PDZ3; FP competition, unlabeled reference ligand vs Cy5-CRIPT, Ki ± fitting error, read-out: Ki PDZ3 Result (Table S2)): > 1000 µM
11 | CC[C@H](C)[C@H](NC(=O)[C@H](CCCNC(=N)N)NC(=O)[C@H](CCSC)NC(=O)[C@@H](NC(=O)[C@H](CO)NC(=O)[C@H](CO)NC(=O)[C@H](CCCCN)NC(=O)[C@H](CCCNC(=N)N)NC(=O)[C@H](CC(=O)O)NC(=O)[C@@H](N)CC(=O)O)[C@@H](C)O)C(=O)N[C@@H](CO)C(=O)N[C@@H](Cc1ccc(O)cc1)C(=O)N[C@@H](CC(C)C)C(=O)O [SSTR3] (H-DDRKSSTMRISYL-OH) |  | Ki (PSD-95 PDZ1; [1]): 610 ± 125 µM; Ki (PSD-95 PDZ1; receptors binding to PDZ1 but not to PDZ2, read-out: K i PDZ1): > 600 µM; Ki (PSD-95 PDZ2): > 1000 µM; Ki (PSD-95 PDZ3; read-out: K i PDZ3): 280 ± 5 µM
12 | GHPLMDSTL [LPA2, synthetic C-tail peptide of human LPA2 with N-terminal YDDR/DDR linker] | not to interact | 
13 | SSSVNVSSNL [CXCR1, synthetic peptide, C-terminal 10 aa of human CXCR1 with N-terminal YDDR/DDR linker] | not to interact | 
14 | DRTNHQVRSL [μOR-1A, synthetic peptide, C-terminal 10 aa of human µOR-1A with N-terminal YDDR/DDR linker] | not to interact | 
15 | GVQPALGVGL [A2B, synthetic peptide, C-terminal 10 aa of human adenosine A2B receptor with N-terminal YDDR/DDR linker] | not to interact | 
16 | SDGPGGGAAA [δOR, synthetic peptide, C-terminal 10 aa of human δ opioid receptor with N-terminal YDDR/DDR linker] | not to interact | 
17 | ETSEASYSGL [CXCR3, synthetic peptide, C-terminal 10 aa of human CXCR3 with N-terminal YDDR/DDR linker] | not to interact | 
18 | SENATSLTTF [CXCR5, synthetic peptide, C-terminal 10 aa of human CXCR5 with N-terminal YDDR/DDR linker] | not to interact | 
19 | TGEQEISVGL [CCR5 Human, synthetic peptide, C-terminal 10 aa of human CCR5 with N-terminal YDDR/DDR linker] | not to interact | 
20 | QSPFPFPGRV [μOR-1B5, synthetic peptide, C-terminal 10 aa of human µOR-1B5 with N-terminal YDDR/DDR linker] | not to interact | 
21 | CC(C)C[C@H](NC(=O)[C@H](CC(C)C)NC(=O)[C@H](CO)NC(=O)[C@H](CC(=O)O)NC(=O)[C@H](CC(N)=O)NC(=O)[C@@H](NC(=O)[C@H](CO)NC(=O)[C@H](CS)NC(=O)[C@H](CC(N)=O)NC(=O)[C@H](CCCNC(=N)N)NC(=O)[C@H](CCCNC(=N)N)NC(=O)[C@H](CC(=O)O)NC(=O)[C@H](CC(=O)O)NC(=O)[C@@H](N)Cc1ccc(O)cc1)[C@@H](C)O)C(=O)O [β2AR] (H-YDDRRNCSTNDSLL-OH) |  | Ki (PSD-95 PDZ1; [1]): > 1000 µM; Ki (PSD-95 PDZ3; read-out: K i PDZ3): > 1000 µM
22 | NDPESLESCF [5-HTR4(a), synthetic peptide, C-terminal 10 aa of human 5-HTR4(a) with N-terminal YDDR/DDR linker] | not to interact | 
23 | TGEHEVSTGL [CCR5 Mouse, synthetic peptide, C-terminal 10 aa of mouse CCR5 with N-terminal YDDR/DDR linker] | not to interact | 
24 | ANGLMQTSKL [SSTR5, synthetic peptide, C-terminal 10 aa of human SSTR5 with N-terminal YDDR/DDR linker] | not to interact | 
